From PMC11272821, “Mechanistic safety assessment via multi-omic characterisation of systemic pathway perturbations following in vivo MAT2A inhibition” (Archives of Toxicology, 2024)

Test system: rat liver proteome
Test: Liver label-free quantitative proteomics
Type: in vivo
Protocol: Liver tissue were homogenized in PreOmics iST buffer (PreOmics) using a bead ruptor. […] Peptides were purified using PreOmics iST cartridges and vacuum-centrifuged to dryness. Peptides were subsequently reconstituted in 2 vol% ACN and 0.1 vol% formic acid for single-run LC–MS analysis. Peptides were analyzed using a Thermo EASY-nLC1200 coupled online to an Exploris 480 Mass Spectrometer equipped with a Nanospray Flex Ion Source integrated with a column oven (PRSO-V1, Sonation) and a FAIMS unit. Peptides were separated using a nonlinear gradient and analyzed by acquiring spectra through Data Independent Acquisition (DIA). Data was analyzed using Spectronaut V15.7.2 (Biognosys AG) direct DIA analysis using an isoform Rat database (UniProt downloaded 22.02.2021) consisting of 9,746 protein entries utilizing the Pulsar search engine. Analysis settings were maintained to factory settings and identification was set to 1% false discovery rate (FDR) for precursor and protein level. Additional information is provided in Supplementary M&M.
Data analysis was performed using R Statistical Software (version 4.3.0). Proteomics, transcriptomics and metabolomics expression changes were visualised using heatmaps showing log2 fold change relative to control. In the heatmaps missing values were highlighted in grey.
Proteomics Analysis. Liver tissue was placed in vials containing 1.4 mm zirconia beads and taken up in 500 µL of PreOmics iST buffer (PreOmics). In a cold room set to 4 °C, tissues were homogenized utilizing a bead Ruptor 12 by shaking for 30 seconds for a total of 5 times using ‘high’ setting. Lysate was normalized using BCA assay (Thermo Fisher Scientific), and subsequently incubated at 95 °C for 10 min for reduction, and alkylation of proteins. A total of 50 μg from each sample was subjected to enzymatic cleavage for 3 h by adding equal amounts of endoproteinase Lys-C and trypsin (ThermoFisher Scientific, # A40009) in a 1:50 (wt/wt) enzyme:protein ratio. De-salting and purification were performed according to the PreOmics iST protocol on a styrene divinylbenzene reversed-phase sulfonate sorbent. Purified peptides were vacuum-centrifuged to dryness and reconstituted in double-distilled water with 2 vol% ACN and 0.1 vol% formic acid (FA) for single-run LC-MS analysis.
Peptides were loaded onto a ReproSil-Pur 120 C18AQ 1.9 µm in-house packed to a 5 µm tip 75u ID × 360u × 50 cm column using Thermo EASY-nLC 1200 coupled online to an Exploris 480 Mass Spectrometer equipped with a Nanospray Flex Ion Source integrated with a column oven (PRSO-V1, Sonation) maintained at 50 °C. Peptides were separated using a nonlinear gradient: Mobile phase A was 0.1 vol% FA and 3 vol% acetonitrile (ACN) in water, Mobile phase B was 90 vol% ACN and 0.1 vol % FA. The gradient was operated at 250 nL/min flowing 3 vol% B for 3 min, 3 to 5 vol% B over 3 min, 5 to 17 vol % B over 120 min, 17 to 24 vol % B over 26 min, 24 to 30 vol% B over 14 min, 30 to 85 vol% B over 3 min.

## Cn1cc2cc(-c3cc4[nH]nc(C5CC5)c4n(-c4ccc(OC(F)F)cc4)c3=O)ccc2n1 [AZ’9567]
Liver protein, 10mg/kg
  Hexa Log2FC: -0.7
  Hfe Log2FC: 1.0
  Hmgcs1 Log2FC: 1.1
  Hmgn2 Log2FC: 1.0
  Hnrnpa1 Log2FC: 1.1
  Hsd17b7 Log2FC: 0.6
  Idi1 Log2FC: 0.9
  Igf1 Log2FC: -1.2
  Kalrn Log2FC: 0.6
  Lipa Log2FC: -0.8
  Lrrc8d Log2FC: 1.0
  Lyrm2 Log2FC: 0.9
  Mat2a Log2FC: 0.7
  Mat2b Log2FC: -2.4
  Me1 Log2FC: -1.5
  Mettl7b Log2FC: -0.8
  Mettl26 Log2FC: -1.6
  Minpp1 Log2FC: 1.1
  Mospd1 Log2FC: -0.7
  Mt1 Log2FC: 5.3
  Mtr Log2FC: 1.1
  Mybbp1a Log2FC: 1.1
  Ncl Log2FC: 0.8
  Nob1 Log2FC: 0.8
  Orm1 Log2FC: 1.2
  Paics Log2FC: 0.8
  Pcyt1a Log2FC: 0.6
  Pklr.1 Log2FC: -0.7
  Prmt1 Log2FC: 0.9
  Pspc1 Log2FC: 0.8
  Ptprs Log2FC: -1.3
  Pum3 Log2FC: 0.9
  Rbm3 Log2FC: 1.0
  Rgn Log2FC: -0.6
  Rmdn1 Log2FC: 0.7
  S1pr1 Log2FC: -0.6
  Scd1 Log2FC: -1.8
  Sh3glb1 Log2FC: 0.6
  Sirt2 Log2FC: 0.9
  Slc6a13 Log2FC: -1.3
  Slc39a4 Log2FC: -2.2
  Sqle Log2FC: 0.6
  Srebf1 Log2FC: 1.2
  Sts Log2FC: -0.7
  Tat Log2FC: -1.7
  Tceanc2 Log2FC: 1.4
  Thg1l Log2FC: 1
  Tpmt Log2FC: -1.2
  Tspo Log2FC: 2
  Txnrd2 Log2FC: -0.7
  Ube2f Log2FC: 0.9
  Ugt2b1 Log2FC: -1.6
  Wdr45 Log2FC: -0.9
  Ythdc1 Log2FC: 0.7
Liver protein, 30mg/kg
  A2m Log2FC: 3.7
  Abcb1 Log2FC: 2
  Abhd1 Log2FC: -1.5
  Acaca Log2FC: -1.2
  Acbd4 Log2FC: -0.6
  Acly Log2FC: -0.9
  Acsl1 Log2FC: -0.8
  Acsl3 Log2FC: -0.9
  Acsl5 Log2FC: -0.6
  Acsm2 Log2FC: 1.4
  Akap5 Log2FC: -1.1
  Aldh1a1 Log2FC: 2.0
  Aldh1a7 Log2FC: 1.7
  Aldh16a1 Log2FC: -0.5
  Alpl Log2FC: 1.8
  Als2 Log2FC: -1.1
  Anpep Log2FC: 1.4
  Aox1 Log2FC: -1.2
  Apeh Log2FC: -0.7
  Apoc1 Log2FC: -1.1
  Aqp8 Log2FC: 1.0
  Asns Log2FC: 1.0
  Baat Log2FC: -0.9
  Banf1 Log2FC: 0.9
  Bhmt2 Log2FC: 1.1
  Bhmt Log2FC: 1.8
  Brix1 Log2FC: 0.9
  Ca5a Log2FC: 0.9
  Carnmt1 Log2FC: -1.3
  Cbs Log2FC: -2.8
  Ccnd1 Log2FC: 16.3
  Cdh1 Log2FC: 0.8
  Cdo1 Log2FC: -4.1
  Ces2c Log2FC: 1.7
  Cfdp1 Log2FC: 0.5
  Chid1 Log2FC: 1.0
  Comt Log2FC: -0.6
  Coq4 Log2FC: 0.7
  Csad Log2FC: -1.1
  Ctbs Log2FC: -0.7
  Cyp2c23 Log2FC: -0.9
  Cyp4a2 Log2FC: 1.3
  Cyp4a10 Log2FC: 1.1
  Dbnl Log2FC: 0.7
  Dcakd Log2FC: 1.3
  Dkc1 Log2FC: 0.6
  Dmgdh Log2FC: 0.7
  Dohh Log2FC: 0.7
  Eif4ebp1 Log2FC: 1.0
  Enpep Log2FC: -1.2
  Fabp4 Log2FC: 1.1
  Fabp5 Log2FC: -1.0
  Fads1 Log2FC: -1.6
  Fasn Log2FC: -0.7
  Fdft1 Log2FC: 1.1
  Fdps Log2FC: 0.5
  Fgr Log2FC: 1.8
  Gimd1 Log2FC: -0.7
  Gmpr Log2FC: 0.8
  Gnl3 Log2FC: 0.8
  Gnmt Log2FC: 1.7
  Gpcpd1 Log2FC: 1.8
  Gstm1 Log2FC: -0.8
  Gstm2 Log2FC: -0.9
  Gtpbp4 Log2FC: 0.8
  Hexa Log2FC: -0.6
  Hfe Log2FC: 1.0
  Hmgcs1 Log2FC: 1.6
  Hmgn2 Log2FC: 1.2
  Hnrnpa1 Log2FC: 1.5
  Hsd17b7 Log2FC: 0.6
  Idi1 Log2FC: 1.3
  Igf1 Log2FC: -1.6
  Kalrn Log2FC: 0.6
  Lipa Log2FC: -0.5
  Lrrc8d Log2FC: 0.8
  Lyrm2 Log2FC: 0.7
  Mat1a Log2FC: 0.6
  Mat2a Log2FC: 0.8
  Mat2b Log2FC: -2.7
  Me1 Log2FC: -1.0
  Mettl7b Log2FC: -1.0
  Mettl26 Log2FC: -1.8
  Minpp1 Log2FC: 1.5
  Mospd1 Log2FC: -0.7
  Mt1 Log2FC: 6.5
  Mtr Log2FC: 1.1
  Mybbp1a Log2FC: 1.0
  Ncl Log2FC: 0.8
  Nob1 Log2FC: 0.9
  Orm1 Log2FC: 1.5
  Paics Log2FC: 0.7
  Pcyt1a Log2FC: 0.8
  Pklr.1 Log2FC: -1.1
  Prmt1 Log2FC: 0.7
  Pspc1 Log2FC: 0.7
  Ptprs Log2FC: -1.0
  Pum3 Log2FC: 1.0
  Rbm3 Log2FC: 1.0
  Rgn Log2FC: -0.7
  Rmdn1 Log2FC: 0.8
  S1pr1 Log2FC: -0.8
  Scd1 Log2FC: -3.2
  Sh3glb1 Log2FC: 0.8
  Sirt2 Log2FC: 0.5
  Slc6a13 Log2FC: -1.0
  Slc22a8 Log2FC: -1.4
  Slc39a4 Log2FC: -2.8
  Sqle Log2FC: 0.8
  Srebf1 Log2FC: 1.3
  Sts Log2FC: -0.6
  Tat Log2FC: -1.6
  Tceanc2 Log2FC: 1.3
  Thg1l Log2FC: 0.6
  Tpmt Log2FC: -1.4
  Tspo Log2FC: 1.9
  Txnrd2 Log2FC: -0.6
  Ube2f Log2FC: 0.6
  Ugt2b1 Log2FC: -1.1
  Wdr45 Log2FC: -1.1
  Ythdc1 Log2FC: 0.5
  mvd Log2FC: 0.9
Middle dose (10 mg/kg BID), adjusted p < 0.05 and Log2 FC > 0.5 or < −0.5
  differentially expressed liver proteins vs vehicle control: 467
